pIC50: −log10 of the molar value. Like-named read-outs stand apart in the source and are kept apart here.
Tests used:
[1] = test system: ERK phosphorylation in Calu-6 cells; test: Calu-6 (Kras Q61K) ERK phosphorylation inhibition experiment (HTRF); format: cell-based, human; conditions: 1 hour incubation with compound
Method: Experimental Embodiment 5: Calu-6 (Kras^Q61K) ERK Phosphorylation Inhibition Experiment
1) the cells were resuscitated and cultured to logarithmic growth phase, digested with trypsin, seeded in 96-well plates with 30000 cells per well, and incubated overnight in an incubator.
2) 1 μL of gradient compound dissolved with DMSO was added to a 96-well plate and placed back into an incubator to incubate for 1 hour.
3) The cell plates were removed out, and the culture medium was poured off, and 50 μL of cell lysate (with 1% blocking peptide) was added to each well.
4) The lysate plate was mixed at 500 rpm and incubated and lysed at room temperature for 30 minutes.
5) The antibody mixture in the kit was prepared at a ratio of 1:1:38.
6) 16 μL of cell lysate was transferred to the HTRF plate per well, then the 4 μL of the configured antibody mixture was added thereto.
7) After incubation overnight, the plate was read with Envision, and the fitted curve was obtained according to the ratio (the ratio of fluorescence intensity of […]) and the EC50 was calculated according to the four-parameter fitting formula Y=Bottom+(Top−Bottom)/(1+10^((Log EC50−X)*HillSlope)) of Graphpad.

Calu-6 cells = test: Calu-6 (Kras Q61K) antiproliferative activity experiment (CellTiterGlo); format: cell-based, human; conditions: cultured three days
Method: Experimental Embodiment 1: Calu-6 (Kras^Q61K) Antiproliferative Activity Experiment
(1) cell culture medium: 88% RPMI-1640, 10% fetal bovine serum, 1% L-glutamine and 1% penicillin-streptomycin;
(2) culture medium, trypsin and DPBS were preheated in a 37° C. water bath;
(3) the original culture medium was removed in the cell culture flask and washed once with 6 mL of PBS;
(4) 3.5 mL of trypsin was added to the cell culture flask, and the cell culture flask was shaken gently, and the trypsin was removed after full contact with the cell, and then the culture flask was placed into a 37° C. incubator containing 5% CO2 for about 1 minute;
(5) the cells were resuspended with 10 mL of cell culture medium, and about 0.6 mL of cell suspension (ViCell XR) was taken out for counting;
(§1) (6) the cell suspension was diluted with culture medium to a cell density required for plating of 2.5×10^4 cells per mL;
(7) 100 μL of PBS was added to each well around the cell plate, and 40 μL of cell suspension was added to the other wells, and placed in a 37° C. incubator containing 5% CO2 for overnight culture.
(§2) (8) The required cell amount and culture medium were taken based on the new T75 culture flask for continued culture.
(§3) (1) the compound to be tested was prepared into […] solution with DMSO;
(2) 9 μL of the compound was taken and added to Echo shallow well plate (Labcyte, #LP-0200), and the shallow well plate was centrifuged at 1000 rpm for 10 seconds;
(3) DPBS at the periphery of the cell plate was sucked out;
(4) the compound was gradient diluted and administrated with Echo, and 10 concentration gradients of each compound were diluted, and 100 nL of the diluent was added to the 384 cell plate separately, and then the cell plate was put back to the incubator and cultured for three days;
(5) then 100 μL of DPBS was added to the periphery of the cell plate.
(1) CTG was added and the plate was read: 20 μL of CellTiterGlo was added to each well of the cell plate, and the cell plate was shaken in the dark for 10 min. and the plate was read on Envision.

[2] = Pharmacokinetics of single intravenous and oral administration in mice; format: in vivo; conditions: single oral administration, 50 mg/kg/day; for Cmax: read-out: Maximum plasma drug concentration Cmax; for Tmax: read-out: Peak time Tmax
Method: Experimental Embodiment 6: Pharmacokinetics Study of Single Intravenous and Oral Administration in Mice and Dogs
This experiment was aimed to study the pharmacokinetics of the test compound in mice and dogs in vivo after a single oral administration of the compound.
After intravenous or oral administration, blood samples were collected and the actual blood collection time was recorded. After the blood sample was collected, the sample was immediately transferred to a labeled centrifuge tube containing K2-EDTA, and then the plasma was taken after centrifugation. The plasma was transferred to a precooled centrifuge tube, quickly frozen in dry ice, and stored in an ultra-low temperature refrigerator at −70±10° C. until LC-MS/MS analysis.
Pharmacokinetic software was used to process the plasma drug concentration data of the compound with […] model. The peak concentration (Cmax) and peak time (Tmax), as well as the end time of quantification, were obtained directly from the plasma drug concentration-time graph. The following pharmacokinetic parameters were calculated by logarithmic linear trapezoidal method: half-life (T1/2), apparent distribution volume (Vdss) and clearance rate (Cl), and the area under the time-plasma concentration curve from 0 to the end time point (AUC0-last).

HCT116 cells = test: HCT116 (Kras G13D) antiproliferative activity experiment (CellTiter Glo); format: cell-based; conditions: Homo sapiens, HCT-116, 72 h, cultured 3 days
Method: Experimental Embodiment 2: HCT116 (Kras^G13D) Antiproliferative Activity Experiment
(1) cell culture medium: 89% Mc′Coy 5A, 10% fetal bovine serum and 1% penicillin-streptomycin;
(2) culture medium and trypsin were preheated in a 37° C. water bath;
(3) the culture medium was removed in the cell culture flask and washed once with 1 mL of trypsin;
(4) 1 mL of trypsin was added to the cell culture flask, and the cell culture flask was shaken gently, and the trypsin was removed after full contact with the cell, and then the culture flask was placed into a 37° C. incubator containing 5% CO2 for about 1 minute;
(5) the cells were resuspended with 2 mL of cell culture medium, and about 0.01 mL of cell suspension was taken out for counting;
as §1
(7) 100 μL of culture medium was added to each well around the cell plate, and 80 μL of cell suspension was added to the other wells, and placed in a 37° C. incubator containing 5% CO2 for overnight culture.
as §2, §3
(2) 9 concentration gradients and 3-fold dilutions were performed on the compounds, that is, a double-duplicate experiment was set from 6 mmol to 2.7 μmol, and 78 μL of culture medium was added to the middle plate, and then 2 μL of gradient diluted compound per well was transferred to the middle plate according to the corresponding position, and after mixing, 20 μL per well was transferred to the cell plate, and the final concentration of the compound transferred to the cell plate was 30 μmol to 13.7 nmol. The cell plate was placed in a carbon dioxide incubator and cultured for another 3 days.
(1) CTG was added and the plate was read: 20 μL of CellTiter Glo was added to each well of the cell plate, and the cell plate was shaken in the dark for 10 min;
(2) plates were read on Victor Nivo.
The equation (Sample-Min)/(Max-Min)*100% was used to convert the original data into inhibition rate, and the IC50 value could be obtained by curve fitting with four parameters (obtained by “log (inhibitor) vs. response—variable slope” mode in GraphPad Prism).

A375 cells = test: A375 (BRAF V600E) antiproliferative activity experiment (CellTiter-glo); format: cell-based; conditions: Homo sapiens, A-375, 120 h, cultured 5 days
Method: Experimental Embodiment 3: A375 (BRAF^V600E) Antiproliferative Activity Experiment
Cell line A375 (purchased from Procell). DMEM culture medium, penicillin/streptomycin antibiotics were purchased from Vicente, and fetal bovine serum was purchased from Biosera. CellTiter-glo (cell viability chemiluminescence detection reagent) reagent was purchased from Promega.
A375 cells were seeded in a white 96 well plate with […] of cell suspension per well containing 2000 of A375 cells. The cell plate was placed in a carbon dioxide incubator and cultured overnight. The compound to be tested was diluted 3-fold to the 9th concentration with a pipette, that is, diluted from 6 mmol to 0.91 μmol, and a double-duplicate experiment was set-up, 78 μmol of culture medium was added to the middle plate, then 2 μmol of gradient dilution compound per well was transferred to the middle plate according to the corresponding position, and 20 μmol per well was mixed and transferred to the cell plate. The concentration of the compound transferred to the cell plate ranged from 30 μmol to 4.57 nmol. The cell plate was placed in a carbon dioxide incubator and cultured for 5 days. Another cell plate was prepared, and the signal value was read as the maximum value (max value in the following equation) on the day of administration to participate in data analysis, 25 μmol of cell viability chemiluminescence detection reagent was added to each well of the cell plate and incubated at room temperature for 10 minutes to stabilize the luminescence signal. A multi-marker analyzer reading was used. After the incubation of the cell plate added with the compound was finished, 25 μmol of cell viability chemiluminescence detection reagent was added to each well of the cell plate and incubated at room temperature for 10 minutes to stabilize the luminescence signal. A multi-marker analyzer reading was used.
(§4) The equation (Sample−Min)/(Max−Min)*100% was used to convert the original data into inhibition rate, and the IC50 value could be obtained by curve fitting with four parameters (obtained by “log (inhibitor) vs. response—variable slope” mode in GraphPad Prism).

Colo205 cells = test: Colo205 (BRAF V600E) antiproliferative activity experiment (CellTiter-glo); format: cell-based; conditions: Homo sapiens, COLO 205, 72 h, cultured 3 days
Method: Experimental Embodiment 4: Colo205 (BRAF^V600E) Antiproliferative Activity Experiment
Cell line COLO205 (purchased from Procell), RPMI1640 culture medium, penicillin/streptomycin antibiotics were purchased from Vicente, and fetal bovine serum was purchased from Biosera. CellTiter-glo (cell viability chemiluminescence detection reagent) reagent was purchased from Promega.
COLO205 cells were seeded in a white 96-well plate with […] of cell suspension per well containing 3000 of COLO205 cells. The cell plate was placed in a carbon dioxide incubator and cultured overnight. The compound to be tested was diluted 3-fold to the 9th concentration with a pipette, that is, diluted from […], and a double-duplicate experiment was set-up. 78 μmol of culture medium was added to the middle plate, then 2 μmol of gradient dilution compound per well was transferred to the middle plate according to the corresponding position, and 20 μmol of per well was mixed and transferred to the cell plate. The concentration of the compound transferred to the cell plate ranged from 1 μmol to 0.15 nmol. The cell plate was placed in a carbon dioxide incubator and cultured for 3 days. Another cell plate was prepared, and the signal value was read as the maximum value (max value in the following equation) on the day of administration to participate in data analysis. 25 μmol of cell viability chemiluminescence detection reagent was added to each well of the cell plate and incubated at room temperature for 10 minutes to stabilize the luminescence signal. A multi-marker analyzer reading was used. After the incubation of the cell plate added with the compound was finished, 25 μmol of cell viability chemiluminescence detection reagent was added to each well of the cell plate and incubated at room temperature for 10 minutes to stabilize the luminescence signal. A multi-marker analyzer reading was used.
as §4

SMILES: COc1cc(F)cc([C@@H](CO)NC(=O)[C@@H](C)N2Cc3ccc(-c4nc(N[C@@H]5CCOC[C@H]5F)ncc4Cl)cc3S2(=O)=O)c1 [Compound 2]
- pIC50 ([1]; Homo sapiens, Calu-6, 1 h): 7.88
- pIC50 (Calu-6 cells; Homo sapiens, Calu-6, 72 h): 6.65

SMILES: COc1cc(F)cc([C@@H](CO)NC(=O)[C@@H](C)N2Cc3ccc(-c4nc(NC5CCOCC5)ncc4Cl)cc3S2(=O)=O)c1 [Compound 4]
- Peak time Tmax [2]: 1 h
- Cmax [2]: 182 µM
- pIC50 [1]: 8.20
- pIC50 (Calu-6 cells): 6.62

SMILES: C[C@H](C(=O)N[C@H](CO)c1cc(F)cc(Cl)c1)N1Cc2ccc(-c3nc(NC4CCOCC4)ncc3Cl)cc2S1(=O)=O [Compound 5]
- Cmax ([2]; mouse, plasma, po): 90.5 µM
- Tmax ([2]; mouse, plasma): 0.75 h
- pIC50 ([1]; Homo sapiens, Calu-6, 1 h): 8.16
- pIC50 (Calu-6 cells; Homo sapiens, Calu-6, 72 h): 6.65

SMILES: COc1cc(F)cc([C@@H](C)NC(=O)[C@@H](CO)N2Cc3ccc(-c4nc(NC5CCOCC5)ncc4Cl)cc3S2(=O)=O)c1 [Compound 6]
- pIC50 (Calu-6 cells; Homo sapiens, Calu-6, 72 h): 6.29

SMILES: Cc1cccc([C@@H](CO)NC(=O)[C@@H](C)N2Cc3ccc(-c4nc(NC5CCOCC5)ncc4Cl)cc3S2(=O)=O)c1 [Compound 7]
- pIC50 ([1]; Homo sapiens, Calu-6, 1 h): 8.36
- pIC50 (Calu-6 cells; Homo sapiens, Calu-6, 72 h): 6.68

SMILES: C[C@H](C(=O)N[C@H](CO)c1cccc(N(C)C)n1)N1Cc2ccc(-c3nc(NC4CCOCC4)ncc3Cl)cc2S1(=O)=O [Compound 8]
- pIC50 (Calu-6 cells; Homo sapiens, Calu-6, 72 h): 6.50

SMILES: COc1cc(F)cc([C@@H](CO)NC(=O)CN2Cc3ccc(-c4nc(NC5CCOCC5)ncc4Cl)cc3S2(=O)=O)c1 [Compound 10]
- Cmax ([2]; mouse, plasma, po): 34.6 µM
- Tmax ([2]; mouse, plasma): 1 h
- pIC50 ([1]; Homo sapiens, Calu-6, 1 h): 8.52
- pIC50 (Calu-6 cells; Homo sapiens, Calu-6, 72 h): 6.60

SMILES: [2H]C1([2H])CC(Nc2ncc(Br)c(-c3ccc4c(c3)S(=O)(=O)N([C@H](C)C(=O)N[C@H](CO)c3cc(F)cc(OC)c3)C4)n2)CC([2H])([2H])O1 [Compound 12]
- pIC50 (HCT116 cells): 6.95
- pIC50 ([1]; Homo sapiens, Calu-6, 1 h): 8.16
- pIC50 (A375 cells): 7.80
- pIC50 (Colo205 cells): 7.68

SMILES: COc1cc(F)cc([C@@H](CO)NC(=O)[C@@H](C)N2Cc3ccc(-c4nc(N[C@H]5CCOC[C@H]5F)ncc4Br)cc3S2(=O)=O)c1 [Compound 13]
- pIC50 (HCT116 cells): 6.86
- pIC50 ([1]; Homo sapiens, Calu-6, 1 h): 8.11
- pIC50 (A375 cells): 7.77
- pIC50 (Colo205 cells): 7.68

From patent publication US11718610B2, “Compounds containing benzosultam” (MEDSHINE DISCOVERY INC., priority 2020, dated 2023)
